In patent US20140357655A1, “SPIROINDOLINE DERIVATIVES AS GONADOTROPIN- RELEASING HORMONE RECEPTOR ANTAGONISTS” (Bayer Intellectual Property GmbH, priority 2012, published 2014) one finds IC50 data, which are given here for 22 compounds.

The test has as its target T1, human GnRH receptor (Homo sapiens, UniProt P30968).
T1 sequence (P30968 1-328): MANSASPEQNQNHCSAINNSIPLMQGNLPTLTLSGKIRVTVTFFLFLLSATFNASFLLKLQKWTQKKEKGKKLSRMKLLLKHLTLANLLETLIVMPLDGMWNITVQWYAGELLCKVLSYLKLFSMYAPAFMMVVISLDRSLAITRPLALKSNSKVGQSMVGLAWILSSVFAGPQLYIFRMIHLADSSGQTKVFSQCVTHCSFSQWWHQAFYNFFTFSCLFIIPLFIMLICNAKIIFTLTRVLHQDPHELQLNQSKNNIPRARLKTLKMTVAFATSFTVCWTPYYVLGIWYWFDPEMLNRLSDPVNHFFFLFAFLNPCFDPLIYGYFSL
The test can be described thus: IP-One HTRF assay with buserelin (at EC80) stimulation. It counts as cell-based. To be noted: CHO cells stably expressing human GnRH receptor, read-out: Potency in IP-One HTRF assay, given as IC50. In short, it runs like this: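 CHO cells stably expressing human GnRH receptor, preincubated 1 h at 37° C with IP1-d2, were exposed to compound and buserelin at EC80 for 1 h at 37° C. After lysis with Tb-anti-IP1 antibody (1 h, 22° C), 665/620 nm HTRF ratio read; 10 concentrations, 20 μM–1 nM, duplicates, 4-parameter IC50.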
(In TR-FRET formats the signal depends on donor and acceptor labels being close together.)

On to `N#Cc1ccc(S(=O)(=O)N2c3ccc(C(=O)Nc4ccccc4Cl)cc3C3(CCS(=O)(=O)CC3)C2C2CC2)cc1` (stereo not shown) [Example 74, N-(2-chlorophenyl)-1-[(4-cyanophenyl)sulfonyl]-2-cyclopropyl-1,2,2′,3′,5′,6′-hexahydrospiro[indole-3,4′-thiopyran]-5-carboxamide 1′,1′-dioxide], for which the IC50 came out at 66 nM.

As to `N#Cc1cccc(S(=O)(=O)N2c3ccc(C(=O)NCc4ccccc4Cl)cc3C3(CCS(=O)(=O)CC3)C2C2CC2)c1` (stereo not shown) [Example 76, N-(2-chlorobenzyl)-1-[(3-cyanophenyl)sulfonyl]-2-cyclopropyl-1,2,2′,3′,5′,6′-hexahydrospiro[indole-3,4′-thiopyran]-5-carboxamide 1′,1′-dioxide], the concentration for half-maximal inhibition (IC50) turned out to be 44 nM.

Turning to `N#Cc1cccc(S(=O)(=O)N2c3ccc(C(=O)Nc4cncc(Cl)c4)cc3C3(CCS(=O)(=O)CC3)C2C2CC2)c1` (stereo not shown) [Example 77, N-(5-chloropyridin-3-yl)-1-[(3-cyanophenyl)sulfonyl]-2-cyclopropyl-1,2,2′,3′,5′,6′-hexahydrospiro[indole-3,4′-thiopyran]-5-carboxamide 1′,1′-dioxide], the IC50 worked out at 700 nM.

As for `N#Cc1cccc(S(=O)(=O)N2c3ccc(C(=O)Nc4ncco4)cc3C3(CCS(=O)(=O)CC3)C2C2CC2)c1` (stereo not shown) [Example 78, 1-[(3-cyanophenyl)sulfonyl]-2-cyclopropyl-N-(1,3-oxazol-2-yl)-1,2,2′,3′,5′,6′-hexahydrospiro[indole-3,4′-thiopyran]-5-carboxamide 1′,1′-dioxide], the 50% inhibitory concentration (IC50) is 706 nM.

With `N#Cc1cccc(S(=O)(=O)N2c3ccc(C(=O)NCc4ncccc4C(F)(F)F)cc3C3(CCS(=O)(=O)CC3)C2C2CC2)c1` (stereo not shown) [Example 79, 1-[(3-cyanophenyl)sulfonyl]-2-cyclopropyl-N-{[3-(trifluoromethyl)pyridin-2-yl]methyl}-1,2,2′,3′,5′,6′-hexahydrospiro[indole-3,4′-thiopyran]-5-carboxamide 1′,1′-dioxide], the IC50 stood at 64 nM.

For the compound `N#Cc1cccc(S(=O)(=O)N2c3ccc(C(=O)Nc4ccon4)cc3C3(CCS(=O)(=O)CC3)C2C2CC2)c1` (stereo not shown) [Example 80, 1-[(3-cyanophenyl)sulfonyl]-2-cyclopropyl-N-(1,2-oxazol-3-yl)-1,2,2′,3′,5′,6′-hexahydrospiro[indole-3,4′-thiopyran]-5-carboxamide 1′,1′-dioxide], the IC50 was found to be 218 nM.

For the compound `O=C(NCc1ccccc1Cl)c1ccc2c(c1)C1(CCS(=O)(=O)CC1)C(C1CC1)N2S(=O)(=O)c1cccc(OC(F)(F)F)c1` (stereo not shown) [Example 81, N-(2-chlorobenzyl)-2-cyclopropyl-1-{[3-(trifluoromethoxy)phenyl]sulfonyl}-1,2,2′,3′,5′,6′-hexahydrospiro[indole-3,4′-thiopyran]-5-carboxamide 1′,1′-dioxide], the half-inhibitory concentration (IC50) was found to be 437 nM.

Consider `COC(=O)c1cccc(NC(=O)c2ccc3c(c2)C2(CCS(=O)(=O)CC2)C(C2CC2)N3S(=O)(=O)c2cccc(OC(F)(F)F)c2)c1` (stereo not shown) [Example 82, methyl 3-{[(2-cyclopropyl-1′,1′-dioxido-1-{[3-(trifluoromethoxy)phenyl]sulfonyl}-1,2,2′,3′,5′,6′-hexahydrospiro[indole-3,4′-thiopyran]-5-yl)carbonyl]amino}benzoate], for which the IC50 amounted to 609 nM.

Regarding `O=C(O)c1cccc(NC(=O)c2ccc3c(c2)C2(CCS(=O)(=O)CC2)C(C2CC2)N3S(=O)(=O)c2cccc(OC(F)(F)F)c2)c1` (stereo not shown) [Example 83, 3-{[(2-cyclopropyl-1′,1′-dioxido-1-{[3-(trifluoromethoxy)phenyl]sulfonyl}-1,2,2′,3′,5′,6′-hexahydrospiro[indole-3,4′-thiopyran]-5-yl)carbonyl]amino}benzoic acid], the 50% inhibitory concentration (IC50) was 140 nM.

With `O=C(NCc1ncccc1C(F)(F)F)c1ccc2c(c1)C1(CCS(=O)(=O)CC1)C(C1CC1)N2S(=O)(=O)c1cccc(OC(F)(F)F)c1` (stereo not shown) [Example 84, 2-cyclopropyl-1-{[3-(trifluoromethoxy)phenyl]sulfonyl)-N-{[3-(trifluoromethyl)pyridin-2-yl]methyl}-1,2,2′,3′,5′,6′-hexahydrospiro[indole-3,4′-thiopyran]-5-carboxamide 1′,1′-dioxide], the IC50 is 309 nM.

Regarding `Cc1cncc(NC(=O)c2ccc3c(c2)C2(CCS(=O)(=O)CC2)C(C2CC2)N3S(=O)(=O)c2cccc(OC(F)(F)F)c2)c1` (stereo not shown) [Example 85, 2-cyclopropyl-N-(5-methylpyridin-3-yl)-1-{[3-(trifluoromethoxy)phenyl]sulfonyl}-1,2,2′,3′,5′,6′-hexahydrospiro[indole-3,4′-thiopyran]-5-carboxamide 1′,1′-dioxide], the IC50 is 804 nM.

`O=C(NCc1ccccc1Cl)c1ccc2c(c1)C1(CCS(=O)(=O)CC1)C(C1CC1)N2S(=O)(=O)c1cccc(OC(F)F)c1` (stereo not shown) [Example 86, N-(2-chlorobenzyl)-2-cyclopropyl-1-{[3-(difluoromethoxy)phenyl]sulfonyl}-1,2,2′,3′,5′,6′-hexahydrospiro[indole-3,4′-thiopyran]-5-carboxamide 1′,1′-dioxide]: the half-inhibitory concentration (IC50) worked out at 196 nM.

Regarding `O=C(NCc1ncccc1C(F)(F)F)c1ccc2c(c1)C1(CCS(=O)(=O)CC1)C(C1CC1)N2S(=O)(=O)c1cccc(OC(F)F)c1` (stereo not shown) [Example 87, 2-cyclopropyl-1-{[3-(difluoromethoxy)phenyl]sulfonyl}-N-{[3-(trifluoromethyl)pyridin-2-yl]methyl}-1,2,2′,3′,5′,6′-hexahydrospiro[indole-3,4′-thiopyran]-5-carboxamide 1′,1′-dioxide], the IC50 was determined as 143 nM.

As for `O=C(Nc1cncc(Cl)c1)c1ccc2c(c1)C1(CCS(=O)(=O)CC1)C(C1CC1)N2S(=O)(=O)c1cccc(OC(F)F)c1` (stereo not shown) [Example 88, N-(5-chloropyridin-3-yl)-2-cyclopropyl-1-{[3-(difluoromethoxy)phenyl]sulfonyl}-1,2,2′,3′,5′,6′-hexahydrospiro[indole-3,4′-thiopyran]-5-carboxamide 1′,1′-dioxide], the IC50 amounted to 262 nM.

Consider `COC(=O)c1cccc(NC(=O)c2ccc3c(c2)C2(CCS(=O)(=O)CC2)C(C2CC2)N3S(=O)(=O)c2cccc(OC(F)F)c2)c1` (stereo not shown) [Example 89, methyl 3-{[(2-cyclopropyl-1-{[3-(difluoromethoxy)phenyl]sulfonyl}-1′,1′-dioxido-1,2,2′,3′,5′,6′-hexahydrospiro[indole-3,4′-thiopyran]-5-yl)carbonyl]amino}benzoate], for which the half-maximal inhibitory concentration (IC50) was found to be 134 nM.

In the case of `O=C(NCc1ccccc1C(F)F)c1ccc2c(c1)C1(CCS(=O)(=O)CC1)C(C1CC1)N2S(=O)(=O)c1ccc(OC(F)F)cc1` (stereo not shown) [Example 91, 2-cyclopropyl-1-{[4-(difluoromethoxy)phenyl]sulfonyl}-N-[2-(difluoromethyl)benzyl]-1,2,2′,3′,5′,6′-hexahydrospiro[indole-3,4′-thiopyran]-5-carboxamide 1′,1′-dioxide], the IC50 was found to be 5.9 nM.

As to `O=C(NCc1ccccc1C(F)(F)F)c1ccc2c(c1)C1(CCS(=O)(=O)CC1)C(C1CC1)N2S(=O)(=O)c1ccc(OC(F)F)cc1` (stereo not shown) [Example 92, 2-cyclopropyl-1-{[4-(difluoromethoxy)phenyl]sulfonyl}-N-[2-(trifluoromethyl)benzyl]-1,2,2′,3′,5′,6′-hexahydrospiro[indole-3,4′-thiopyran]-5-carboxamide 1′,1′-dioxide], the IC50 turned out to be 31 nM.

On to `O=C(NCc1ncccc1C(F)(F)F)c1ccc2c(c1)C1(CCS(=O)(=O)CC1)C(C1CC1)N2S(=O)(=O)c1ccc(OC(F)F)cc1` (stereo not shown) [Example 93, 2-cyclopropyl-1-{[4-(difluoromethoxy)phenyl]sulfonyl}-N-{[3-(trifluoromethyl)pyridin-2-yl]methyl}-1,2,2′,3′,5′,6′-hexahydrospiro[indole-3,4′-thiopyran]-5-carboxamide 1′,1′-dioxide], for which the IC50 was 53 nM.

For the compound `NC(=O)c1ccc(S(=O)(=O)N2c3ccc(C(=O)NCc4ccccc4Cl)cc3C3(CCS(=O)(=O)CC3)C2C2CC2)cc1` (stereo not shown) [Example 94, 1-[(4-carbamoylphenyl)sulfonyl]-N-(2-chlorobenzyl)-2-cyclopropyl-1,2,2′,3′,5′,6′-hexahydrospiro[indole-3,4′-thiopyran]-5-carboxamide 1′,1′-dioxide], the 50% inhibitory concentration (IC50) stood at 222 nM.

For `CN1CCCC1=NS(=O)(=O)c1cccc(NC(=O)c2ccc3c(c2)C2(CCS(=O)(=O)CC2)C(C2CC2)N3S(=O)(=O)c2ccc(C(N)=O)cc2)c1` (stereo not shown) [Example 95, 1-[(4-carbamoylphenyl)sulfonyl]-2-cyclopropyl-N-{3-[(1-methylpyrrolidin-2-ylidene)sulfamoyl]phenyl}-1,2,2′,3′,5′,6′-hexahydrospiro[indole-3,4′-thiopyran]-5-carboxamide 1′,1′-dioxide], the half-inhibitory concentration (IC50) amounted to 225 nM.

With `NC(=O)c1ccc(S(=O)(=O)N2c3ccc(C(=O)Nc4cccc(S(=O)(=O)Nc5nccs5)c4)cc3C3(CCS(=O)(=O)CC3)C2C2CC2)cc1` (stereo not shown) [Example 96, 1-[(4-carbamoylphenyl)sulfonyl]-2-cyclopropyl-N-[3-(1,3-thiazol-2-ylsulfamoyl)phenyl]-1,2,2′,3′,5′,6′-hexahydrospiro[indole-3,4′-thiopyran]-5-carboxamide 1′,1′-dioxide], the concentration for half-maximal inhibition (IC50) was 484 nM.

Regarding `O=C(Nc1ccc2c(c1)C1(CCS(=O)(=O)CC1)C(C1CC1)N2S(=O)(=O)c1ccc(F)cc1)C1CC1` (stereo not shown) [Example 97, N-{2-Cyclopropyl-1-[(4-fluorophenyl)sulfonyl]-1′,1′-dioxido-1,2,2′,3′,5′,6′-hexahydrospiro[indole-3,4′-thiopyran]-5-yl}cyclopropanecarboxamide], the IC50 was 2230 nM.

The term IC50 denotes the concentration that gives 50% inhibition.
